Literature values in US6800300B1, “Method for treating autoimmune and alloimmune diseases” (Vasogen Ireland Limited, priority 2000, dated 2004).
Structures can show the parent of a compound that is named as a salt.

Assays:
[1] = test system: serum TNF; settings: endotoxin-induced shock rat model
[2] = test system: TNF-α production by lymphocytes and macrophages

C[C@H](Cc1ccccc1)Nc1ncnc2c1ncn2[C@@H]1O[C@H](CO)[C@@H](O)[C@H]1O [R-phenylisopropyladenosine (R-PIA), R-phenylisopropyladenosine]
serum TNF concentrations [1]: reduce serum TNF concentrations

CC(=O)O[C@H]1C[C@@]2(C)[C@@H](C[C@@H](O)[C@H]3[C@@]4(C)CC[C@@H](O)[C@@H](C)[C@@H]4CC[C@@]32C)/C1=C(\CCC=C(C)C)C(=O)O [fusidic acid (sodiun salt), fusidic acid]
serum TNF concentrations [1]: reduce serum TNF concentrations

COc1ccc(C2CNC(=O)C2)cc1OC1CCCC1 (centres unmarked) [4-(3-cyclopentyloxy4-methoxyphenyl)-2-pyrrolidone]
production of TNF-α [2]: down-regulate the production of TNF-α

N=C(N)c1ccc(OCCCCCOc2ccc(C(=N)N)cc2)cc1 [pentamidine (isethionate), pentamidine]
serum TNF concentrations [1]: reduce serum TNF concentrations

CC(=O)CCCCn1c(=O)c2c(ncn2C)n(C)c1=O [pentoxifylline]
serum TNF concentrations [1]: reduce serum TNF concentrations
